Legend:
mustard, wild = assay: Test D postemergence; format: in vivo, Sinapis arvensis; conditions: scale 0 to 100
Procedure, shortened: (§1)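 Preemergence: seeds sown in silt loam and sprayed with compounds in a non-phytotoxic solvent with surfactant; postemergence: plants at 2 to 18 cm (1- to 4-leaf stage) in peat-based medium treated likewise. After 14 to 21 days in controlled growth conditions, injury rated visually versus controls on 0 (no effect) to 100 (complete control) scale.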

hairy beggarticks = assay: Test F preemergence; format: in vivo, Bidens pilosa
Procedure, shortened: (§2)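 Percent-control style visual scores, from 0 (no effect) to 100 (complete control), were given relative to controls. Treatment timing: preemergence on silt loam plantings, or postemergence at 1- to 4-leaf stage. Evaluation came 14 to 21 days after spraying, greenhouse conditions.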

crabgrass, Brazil = assay: Test F preemergence; format: in vivo, Digitaria horizontalis
Procedure, shortened: as §2

barley, winter = assay: Test D preemergence; format: in vivo, Hordeum vulgare; conditions: scale 0 to 100
Procedure, shortened: as §1

barley, spring = assay: Test D preemergence; format: in vivo, Hordeum vulgare; conditions: scale 0 to 100
Procedure, shortened: as §1

oat, wild = assay: Test D postemergence; format: in vivo, Avena fatua; conditions: scale 0 to 100
Procedure, shortened: as §1

common waterhemp = assay: Test F preemergence; format: in vivo, Amaranthus rudis
Procedure, shortened: as §2

radish, wild [1] = assay: Test D preemergence; format: in vivo, Raphanus raphanistrum; conditions: scale 0 to 100
Procedure, shortened: as §1

foxtail, green = assay: Test D preemergence; format: in vivo, Setaria viridis; conditions: scale 0 to 100
Procedure, shortened: as §1

morningglory = assay: Test F preemergence; format: in vivo, Ipomoea coccinea
Procedure, shortened: as §2

field poppy = assay: Test D preemergence; format: in vivo, Papaver rhoeas; conditions: scale 0 to 100
Procedure, shortened: as §1

Italian ryegrass = assay: Test F preemergence; format: in vivo, Lolium multiflorum
Procedure, shortened: as §2

dayflower, VA = assay: Test F preemergence; format: in vivo, Commelina virginica
Procedure, shortened: as §2

radish, wild [2] = assay: Test D postemergence; format: in vivo, Raphanus raphanistrum; conditions: scale 0 to 100
Procedure, shortened: as §1

[3] = Preemergence, 31 g ai/ha, scale 0 to 100
[4] = Preemergence, 62 g ai/ha, scale 0 to 100
[5] = Preemergence, 125 g ai/ha, scale 0 to 100
[6] = preemergence, 8 g ai/ha, scale 0 to 100, 100 is complete control
[7] = preemergence, 16 g ai/ha, scale 0 to 100, 100 is complete control
[8] = Preemergence, 16 g ai/ha, scale 0 to 100

CCCc1cc(C(=O)NCC(F)(F)F)nn1Cc1ccnc(C(F)(F)F)c1 [Compound 105]
95: Plant response rating, Barley, Winter (barley, winter; 250 g ai/ha) | Plant response rating, Morningglory (morningglory; [5])
35: Plant response rating, Radish, Wild (radish, wild [1]; 31 g ai/ha) | Radish, Wild plant response rating (radish, wild [2]; Postemergence, 31 g ai/ha)
65: Plant response rating, Barley, Spring (barley, spring; 125 g ai/ha)
50: Oat, Wild plant response rating (oat, wild; Postemergence, 250 g ai/ha) | Plant response rating, Italian Ryegrass (Italian ryegrass; [3]) | Plant response rating, Dayflower, VA (dayflower, VA; [3])
75: Plant response rating, Common Waterhemp (common waterhemp; [6])
15: Plant response rating, Barley, Spring (barley, spring; 31 g ai/ha) | Oat, Wild plant response rating (oat, wild; Postemergence, 31 g ai/ha)
85: Mustard, Wild plant response rating (mustard, wild; Postemergence, 125 g ai/ha) | Plant response rating, Barley, Spring (barley, spring; 250 g ai/ha)
90: Mustard, Wild plant response rating (mustard, wild; Postemergence, 250 g ai/ha) | Plant response rating, Morningglory (morningglory; [4])
98: Plant response rating, Crabgrass, Brazil (crabgrass, Brazil; [3]) | Plant response rating, Dayflower, VA (dayflower, VA; [5])
45: Plant response rating, Foxtail, Green (foxtail, green; 31 g ai/ha)
55: Radish, Wild plant response rating (radish, wild [2]; postemergence, 62 g ai/ha)
80: Plant response rating, Italian Ryegrass (Italian ryegrass; [5]) | Plant response rating, Dayflower, VA (dayflower, VA; [4]) | Radish, Wild plant response rating (radish, wild [2]; Postemergence, 250 g ai/ha)
0: Plant response rating, Hairy Beggarticks (hairy beggarticks; [3]) | Plant response rating, Hairy Beggarticks (hairy beggarticks; [6]) | Plant response rating, Hairy Beggarticks (hairy beggarticks; [7]) | Plant response rating, Italian Ryegrass (Italian ryegrass; [6]) | Plant response rating, Italian Ryegrass (Italian ryegrass; [7]) | Plant response rating, Dayflower, VA (dayflower, VA; [6])
40: Plant response rating, Hairy Beggarticks (hairy beggarticks; [5]) | Plant response rating, Crabgrass, Brazil (crabgrass, Brazil; [7]) | Plant response rating, Barley, Winter (barley, winter; 62 g ai/ha) | Plant response rating, Barley, Spring (barley, spring; 62 g ai/ha) | Plant response rating, Dayflower, VA (dayflower, VA; [7])
20: Plant response rating, Hairy Beggarticks (hairy beggarticks; [4]) | Oat, Wild plant response rating (oat, wild; postemergence, 62 g ai/ha) | Plant response rating, Morningglory (morningglory; [6])
60: Mustard, Wild plant response rating (mustard, wild; postemergence, 62 g ai/ha) | Plant response rating, Italian Ryegrass (Italian ryegrass; [4])
25: Oat, Wild plant response rating (oat, wild; Postemergence, 125 g ai/ha) | Plant response rating, Morningglory (morningglory; [3]) | Plant response rating, Morningglory (morningglory; [7])
100: Plant response rating, Crabgrass, Brazil (crabgrass, Brazil; [4]) | Plant response rating, Crabgrass, Brazil (crabgrass, Brazil; [5]) | Plant response rating, Common Waterhemp (common waterhemp; [3]) | Plant response rating, Common Waterhemp (common waterhemp; [4]) | Plant response rating, Common Waterhemp (common waterhemp; [5]) | Plant response rating, Common Waterhemp (common waterhemp; [7]) | Plant response rating, Radish, Wild (radish, wild [1]; 62 g ai/ha) | Plant response rating, Radish, Wild (radish, wild [1]; 125 g ai/ha) | Plant response rating, Radish, Wild (radish, wild [1]; 250 g ai/ha) | Plant response rating, Foxtail, Green (foxtail, green; 62 g ai/ha) | Plant response rating, Foxtail, Green (foxtail, green; 125 g ai/ha) | Plant response rating, Foxtail, Green (foxtail, green; 250 g ai/ha) | Plant response rating, Field Poppy (field poppy; 31 g ai/ha) | Plant response rating, Field Poppy (field poppy; 62 g ai/ha) | Plant response rating, Field Poppy (field poppy; 125 g ai/ha) | Plant response rating, Field Poppy (field poppy; 250 g ai/ha)
5: Plant response rating, Crabgrass, Brazil (crabgrass, Brazil; [6]) | Plant response rating, Barley, Winter (barley, winter; 31 g ai/ha)
70: Mustard, Wild plant response rating (mustard, wild; Postemergence, 31 g ai/ha) | Plant response rating, Barley, Winter (barley, winter; 125 g ai/ha) | Radish, Wild plant response rating (radish, wild [2]; Postemergence, 125 g ai/ha)

CCOc1cc(C(=O)NC(C)C)nn1Cc1ccnc(C(F)(F)F)c1 [Compound 188]
80: Plant response rating, Barley, Winter (barley, winter; 125 g ai/ha) | Plant response rating, Italian Ryegrass (Italian ryegrass; [5])
100: Plant response rating, Crabgrass, Brazil (crabgrass, Brazil; [8]) | Plant response rating, Crabgrass, Brazil (crabgrass, Brazil; [4]) | Plant response rating, Crabgrass, Brazil (crabgrass, Brazil; [5]) | Plant response rating, Barley, Winter (barley, winter; 250 g ai/ha) | Plant response rating, Common Waterhemp (common waterhemp; [8]) | Plant response rating, Common Waterhemp (common waterhemp; [4]) | Plant response rating, Common Waterhemp (common waterhemp; [5]) | Plant response rating, Radish, Wild (radish, wild [1]; 62 g ai/ha) | Plant response rating, Radish, Wild (radish, wild [1]; 125 g ai/ha) | Plant response rating, Radish, Wild (radish, wild [1]; 250 g ai/ha) | Plant response rating, Foxtail, Green (foxtail, green; 62 g ai/ha) | Plant response rating, Foxtail, Green (foxtail, green; 125 g ai/ha) | Plant response rating, Foxtail, Green (foxtail, green; 250 g ai/ha) | Plant response rating, Morningglory (morningglory; [5]) | Plant response rating, Field Poppy (field poppy; 62 g ai/ha) | Plant response rating, Field Poppy (field poppy; 125 g ai/ha) | Plant response rating, Field Poppy (field poppy; 250 g ai/ha) | Plant response rating, Dayflower, VA (dayflower, VA; [5])
70: Plant response rating, Barley, Winter (barley, winter; 62 g ai/ha) | Oat, Wild plant response rating (oat, wild; Postemergence, 250 g ai/ha) | Plant response rating, Morningglory (morningglory; [4]) | Plant response rating, Italian Ryegrass (Italian ryegrass; [4]) | Radish, Wild plant response rating (radish, wild [2]; Postemergence, 31 g ai/ha) | Radish, Wild plant response rating (radish, wild [2]; Postemergence, 125 g ai/ha) | Radish, Wild plant response rating (radish, wild [2]; postemergence, 62 g ai/ha)
65: Plant response rating, Barley, Spring (barley, spring; 31 g ai/ha) | Plant response rating, Morningglory (morningglory; [6])
90: Plant response rating, Dayflower, VA (dayflower, VA; [4]) | Radish, Wild plant response rating (radish, wild [2]; Postemergence, 250 g ai/ha)
95: Plant response rating, Barley, Spring (barley, spring; 250 g ai/ha)
60: Mustard, Wild plant response rating (mustard, wild; Postemergence, 125 g ai/ha)
15: Oat, Wild plant response rating (oat, wild; Postemergence, 31 g ai/ha) | Oat, Wild plant response rating (oat, wild; postemergence, 62 g ai/ha)
85: Mustard, Wild plant response rating (mustard, wild; Postemergence, 250 g ai/ha) | Plant response rating, Barley, Spring (barley, spring; 125 g ai/ha) | Plant response rating, Common Waterhemp (common waterhemp; [6])
25: Oat, Wild plant response rating (oat, wild; Postemergence, 125 g ai/ha)
30: Plant response rating, Morningglory (morningglory; [8])
50: Mustard, Wild plant response rating (mustard, wild; Postemergence, 31 g ai/ha) | Mustard, Wild plant response rating (mustard, wild; postemergence, 62 g ai/ha)
35: Plant response rating, Crabgrass, Brazil (crabgrass, Brazil; [6]) | Plant response rating, Barley, Winter (barley, winter; 31 g ai/ha)
75: Plant response rating, Barley, Spring (barley, spring; 62 g ai/ha)
0: Plant response rating, Hairy Beggarticks (hairy beggarticks; [4]) | Plant response rating, Hairy Beggarticks (hairy beggarticks; [5]) | Plant response rating, Hairy Beggarticks (hairy beggarticks; [6]) | Plant response rating, Italian Ryegrass (Italian ryegrass; [6]) | Plant response rating, Dayflower, VA (dayflower, VA; [6])

Reference: patent US20150105252A1, “SUBSTITUTED PYRAZOLES AS HERBICIDES” (E I DU PONT DE NEMOURS AND COMPANY, priority 2013, published 2015)
